# Measurements from ChEMBL document CHEMBL4715697, “Synthesis and biological activity of benzamide DNA minor groove binders” (2016).
# Legend:
# NCI-H460 = experiment: Growth inhibition of human NCI-H460 cells assessed as cell growth at 10 uM incubated for 48 hrs by sulforhodamine B assay relative to control; type: functional; details: read-out: Activity
# A549 = experiment: Growth inhibition of human A549/ATCC cells assessed as cell growth at 10 uM incubated for 48 hrs by sulforhodamine B assay relative to control; type: functional; details: read-out: Activity
# UACC-257 = experiment: Growth inhibition of human UACC-257 cells assessed as cell growth at 10 uM incubated for 48 hrs by sulforhodamine B assay relative to control; type: functional; details: read-out: Activity
# NCI-H226 = experiment: Growth inhibition of human NCI-H226 cells assessed as cell growth at 10 uM incubated for 48 hrs by sulforhodamine B assay relative to control; type: functional; details: read-out: Activity
# EKVX = experiment: Growth inhibition of human EKVX cells assessed as cell growth at 10 uM incubated for 48 hrs by sulforhodamine B assay relative to control; type: functional; details: read-out: Activity
# 786-0 = experiment: Growth inhibition of human 786-0 cells assessed as cell growth at 10 uM incubated for 48 hrs by sulforhodamine B assay relative to control; type: functional; details: read-out: Activity
# SR [1] = experiment: Growth inhibition of human SR cells assessed as cell growth at 10 uM incubated for 48 hrs by sulforhodamine B assay relative to control; type: functional; details: read-out: Activity
# SK-MEL-5 = experiment: Growth inhibition of human SK-MEL-5 cells assessed as cell growth at 10 uM incubated for 48 hrs by sulforhodamine B assay relative to control; type: functional; details: read-out: Activity
# LOX IMVI = experiment: Growth inhibition of human LOX IMVI cells assessed as cell growth at 10 uM incubated for 48 hrs by sulforhodamine B assay relative to control; type: functional; details: read-out: Activity
# [2] = system: Poly(dA-dT)oligonucleotide; experiment: Displacement of ethidium bromide from minor groove of poly(dA:dT) dsDNA (unknown origin) by fluorescence spectrophotometry; type: nucleic-acid assay
# MDA-MB-231 = experiment: Growth inhibition of human MDA-MB-231 cells assessed as cell growth at 10 uM incubated for 48 hrs by sulforhodamine B assay relative to control; type: functional; details: read-out: Activity
# SK-MEL-28 [3] = experiment: Growth inhibition of human SK-MEL-28 cells assessed as cell growth at 10 uM incubated for 48 hrs by sulforhodamine B assay relative to control; type: functional; details: read-out: Activity
# SN12C = experiment: Growth inhibition of human SN12C cells assessed as cell growth at 10 uM incubated for 48 hrs by sulforhodamine B assay relative to control; type: functional; details: read-out: Activity
# SW-620 = experiment: Growth inhibition of human SW-620 cells assessed as cell growth at 10 uM incubated for 48 hrs by sulforhodamine B assay relative to control; type: functional; details: read-out: Activity
# OVCAR-4 [4] = experiment: Growth inhibition of human OVCAR-4 cells assessed as cell growth at 10 uM incubated for 48 hrs by sulforhodamine B assay relative to control; type: functional; details: read-out: Activity
# NCI/ADR-RES [5] = experiment: Growth inhibition of human NCI/ADR-RES cells assessed as cell growth at 10 uM incubated for 48 hrs by sulforhodamine B assay relative to control; type: functional; details: read-out: Activity
# [6] = system: Poly(dA-dT)oligonucleotide; experiment: Binding affinity to minor groove of poly(dA:dT) dsDNA (unknown origin) assessed as change in melting temperature by UV-vis spectrophotometry based DNA melting assay; type: nucleic-acid assay
# TK-10 = experiment: Growth inhibition of human TK-10 cells assessed as cell growth at 10 uM incubated for 48 hrs by sulforhodamine B assay relative to control; type: functional; details: read-out: Activity
# OVCAR-4 [7] = experiment: Growth inhibition of human OVCAR-4 cells assessed as cell growth at 0.1 uM incubated for 48 hrs by sulforhodamine B assay relative to control; type: functional; details: read-out: Activity
# Hs-578T [8] = experiment: Growth inhibition of human Hs-578T cells assessed as cell growth at 10 uM incubated for 48 hrs by sulforhodamine B assay relative to control; type: functional; details: read-out: Activity
# MDA-MB-435 [9] = experiment: Growth inhibition of human MDA-MB-435 cells assessed as cell growth at 100 uM incubated for 48 hrs by sulforhodamine B assay relative to control; type: functional; details: read-out: Activity
# ACHN = experiment: Growth inhibition of human ACHN cells incubated for 48 hrs by sulforhodamine B assay; type: functional
# SK-MEL-28 [10] = experiment: Growth inhibition of human SK-MEL-28 cells assessed as cell growth at 0.01 uM incubated for 48 hrs by sulforhodamine B assay relative to control; type: functional; details: read-out: Activity
# M14 = experiment: Growth inhibition of human M14 cells assessed as cell growth at 1 uM incubated for 48 hrs by sulforhodamine B assay relative to control; type: functional; details: read-out: Activity
# HCT-116 = experiment: Growth inhibition of human HCT-116 cells assessed as cell growth at 0.1 uM incubated for 48 hrs by sulforhodamine B assay relative to control; type: functional; details: read-out: Activity
# SF-295 [11] = experiment: Growth inhibition of human SF-295 cells assessed as cell growth at 10 uM incubated for 48 hrs by sulforhodamine B assay relative to control; type: functional; details: read-out: Activity
# U-251 = experiment: Growth inhibition of human U-251 cells incubated for 48 hrs by sulforhodamine B assay; type: functional
# A498 = experiment: Growth inhibition of human A498 cells assessed as cell growth at 10 uM incubated for 48 hrs by sulforhodamine B assay relative to control; type: functional; details: read-out: Activity
# MOLT-4 = experiment: Growth inhibition of human MOLT-4 cells assessed as cell growth at 0.01 uM incubated for 48 hrs by sulforhodamine B assay relative to control; type: functional; details: read-out: Activity
# NCI/ADR-RES [12] = experiment: Growth inhibition of human NCI/ADR-RES cells incubated for 48 hrs by sulforhodamine B assay; type: functional
# SR [13] = experiment: Growth inhibition of human SR cells assessed as cell growth at 1 uM incubated for 48 hrs by sulforhodamine B assay relative to control; type: functional; details: read-out: Activity
# MDA-MB-435 [14] = experiment: Growth inhibition of human MDA-MB-435 cells assessed as cell growth at 0.01 uM incubated for 48 hrs by sulforhodamine B assay relative to control; type: functional; details: read-out: Activity
# OVCAR-3 = experiment: Growth inhibition of human OVCAR-3 cells incubated for 48 hrs by sulforhodamine B assay; type: functional
# SF-268 = experiment: Growth inhibition of human SF-268 cells assessed as cell growth at 0.01 uM incubated for 48 hrs by sulforhodamine B assay relative to control; type: functional; details: read-out: Activity
# Hs-578T [15] = experiment: Growth inhibition of human Hs-578T cells assessed as cell growth at 1 uM incubated for 48 hrs by sulforhodamine B assay relative to control; type: functional; details: read-out: Activity
# SF-295 [16] = experiment: Growth inhibition of human SF-295 cells assessed as cell growth at 100 uM incubated for 48 hrs by sulforhodamine B assay relative to control; type: functional; details: read-out: Activity
# CAKI-1 = experiment: Growth inhibition of human CAKI-1 cells assessed as cell growth at 0.1 uM incubated for 48 hrs by sulforhodamine B assay relative to control; type: functional; details: read-out: Activity
# [17] = read-out: LC50 (the source's name)
# [18] = read-out: pLC50 (the source's name) (converted)
smiles,measurement,setting,value
CC(=O)Nc1cc(CO)cc(NC(=O)c2ccc(C(=O)Nc3cccc(NC(=O)CCCN(C)C)c3)cc2)c1,growth at 10 µM,NCI-H460,90.3%
same,growth at 10 µM,A549,108%
same,growth at 10 µM,UACC-257,88%
same,growth at 10 µM,NCI-H226,93.6%
same,growth at 10 µM,EKVX,95.5%
same,growth at 10 µM,786-0,104%
same,growth at 10 µM,SR [1],11%
same,growth at 10 µM,SK-MEL-5,77.7%
same,growth at 10 µM,LOX IMVI,88.1%
same,C50,[2],118 µM
same,growth at 10 µM,MDA-MB-231,88.6%
same,growth at 10 µM,SK-MEL-28 [3],85.3%
same,growth at 10 µM,SN12C,103%
same,growth at 10 µM,SW-620,98.2%
same,growth at 10 µM,OVCAR-4 [4],34.8%
same,growth at 10 µM,NCI/ADR-RES [5],107%
same,ΔTm,[6],30.7 °C
same,growth at 10 µM,TK-10,117%
CC(=O)Nc1cc(CO[Si](C)(C)C(C)(C)C)cc(NC(=O)c2ccc(C(=O)Nc3cccc(NC(=O)CCCN(C)C)c3)cc2)c1,growth at 0.1 µM,OVCAR-4 [7],96%
same,growth at 10 µM,NCI-H460,95%
same,growth at 10 µM,Hs-578T [8],111%
same,growth at 10 µM,A549,86%
same,growth at 100 µM,MDA-MB-435 [9],88%
same,GI50,ACHN; read-out: GI50,> 75 µM
same,CC50,ACHN; [17],> 75 µM
same,TGI,ACHN; read-out: TGI,> 75 µM
same,GI50,ACHN; read-out: pGI50 (converted),> 75.9 µM
same,CC50,ACHN; [18],> 75.9 µM
same,TGI,ACHN; read-out: pTGI,> 75.9 µM
same,growth at 10 µM,UACC-257,87%
same,growth at 0.01 µM,SK-MEL-28 [10],98%
same,growth at 10 µM,NCI-H226,85%
same,growth at 10 µM,EKVX,91%
same,growth at 10 µM,786-0,95%
same,growth at 1 µM,M14,101%
same,growth at 10 µM,SR [1],108%
same,growth at 10 µM,SK-MEL-5,89%
same,growth at 0.1 µM,HCT-116,99%
same,growth at 10 µM,SF-295 [11],95%
same,growth at 10 µM,LOX IMVI,82%
same,C50,[2],5 µM
same,growth at 10 µM,MDA-MB-231,99%
same,growth at 10 µM,SK-MEL-28 [3],87%
same,GI50,U-251; read-out: GI50,> 75 µM
same,CC50,U-251; [17],> 75 µM
same,TGI,U-251; read-out: TGI,> 75 µM
same,GI50,U-251; read-out: pGI50 (converted),> 75.9 µM
same,CC50,U-251; [18],> 75.9 µM
same,TGI,U-251; read-out: pTGI,> 75.9 µM
same,growth at 10 µM,A498,77%
same,growth at 10 µM,SN12C,99%
same,growth at 10 µM,SW-620,99%
same,growth at 10 µM,OVCAR-4 [4],85%
same,growth at 0.01 µM,MOLT-4,87%
same,growth at 10 µM,NCI/ADR-RES [5],88%
same,GI50,NCI/ADR-RES [12]; read-out: GI50,> 75 µM
same,CC50,NCI/ADR-RES [12]; [17],> 75 µM
same,TGI,NCI/ADR-RES [12]; read-out: TGI,> 75 µM
same,GI50,NCI/ADR-RES [12]; read-out: pGI50 (converted),> 75.9 µM
same,CC50,NCI/ADR-RES [12]; [18],> 75.9 µM
same,TGI,NCI/ADR-RES [12]; read-out: pTGI,> 75.9 µM
same,growth at 1 µM,SR [13],94%
same,growth at 0.01 µM,MDA-MB-435 [14],98%
same,ΔTm,[6],47.2 °C
same,GI50,OVCAR-3; read-out: GI50,> 75 µM
same,LC50 (50% lethal concentration),OVCAR-3; read-out: LC50,> 75 µM
same,TGI,OVCAR-3; read-out: TGI,> 75 µM
same,GI50,OVCAR-3; read-out: pGI50 (converted),> 75.9 µM
same,LC50 (50% lethal concentration),OVCAR-3; read-out: pLC50 (converted),> 75.9 µM
same,TGI,OVCAR-3; read-out: pTGI,> 75.9 µM
same,growth at 0.01 µM,SF-268,99%
same,growth at 1 µM,Hs-578T [15],117%
same,growth at 100 µM,SF-295 [16],88%
same,growth at 0.1 µM,CAKI-1,91%
same,growth at 10 µM,TK-10,104%
CC(=O)Nc1cc(CO)cc(NC(=O)c2ccccc2)c1,growth at 10 µM,NCI-H460,104%
same,growth at 10 µM,Hs-578T [8],105%
same,growth at 10 µM,A549,100%
same,growth at 10 µM,UACC-257,104%
same,growth at 10 µM,NCI-H226,115%
same,growth at 10 µM,EKVX,103%
same,growth at 10 µM,786-0,104%
same,growth at 10 µM,SR [1],107%
same,growth at 10 µM,SK-MEL-5,105%
same,growth at 10 µM,SF-295 [11],108%
same,growth at 10 µM,LOX IMVI,99%
same,growth at 10 µM,MDA-MB-231,109%
same,growth at 10 µM,SK-MEL-28 [3],109%
same,growth at 10 µM,A498,91.6%
same,growth at 10 µM,SN12C,119%
same,growth at 10 µM,SW-620,106%
same,growth at 10 µM,OVCAR-4 [4],111%
same,growth at 10 µM,NCI/ADR-RES [5],105%
same,growth at 10 µM,TK-10,119%
CC(=O)Nc1cc(CCl)cc(NC(=O)c2ccc(C(=O)NCCCN(C)C)cc2)c1,growth at 10 µM,NCI-H460,104%
same,growth at 10 µM,Hs-578T [8],111%
same,growth at 10 µM,A549,98.5%
same,growth at 10 µM,UACC-257,102%
same,growth at 10 µM,NCI-H226,105%
same,growth at 10 µM,EKVX,101%
same,growth at 10 µM,786-0,104%
same,growth at 10 µM,SK-MEL-5,108%
same,growth at 10 µM,SF-295 [11],97.6%
same,growth at 10 µM,LOX IMVI,95.2%
same,C50,[2],506 µM
same,growth at 10 µM,MDA-MB-231,139%
same,growth at 10 µM,SK-MEL-28 [3],107%
same,growth at 10 µM,SN12C,128%
same,growth at 10 µM,SW-620,108%
same,growth at 10 µM,NCI/ADR-RES [5],109%
same,ΔTm,[6],21.6 °C
same,growth at 10 µM,TK-10,107%
